Laboratory results published in PubChem BioAssay (NCI).
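Dose response: 5 concentrations. Exposure: 48 h. Format: 96-well plates. Endpoint: linear interpolation; highest concentration if not reached. TGI marks complete inhibition of growth.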

Assays:
Experiment in all cases: growth of human tumour cells (NCI), 48 h
786-0 renal = tested on: 786-0 renal
A549 NSCLC = tested on: A549 NSCLC
ACHN renal = tested on: ACHN renal
BT-549 breast = tested on: BT-549 breast
CAKI-1 renal = tested on: CAKI-1 renal
CCRF-CEM leukemia = tested on: CCRF-CEM leukemia
COLO 205 colon = tested on: COLO 205 colon
DU-145 prostate = tested on: DU-145 prostate
EKVX NSCLC = tested on: EKVX NSCLC
HCC-2998 colon = tested on: HCC-2998 colon
HCT-116 colon = tested on: HCT-116 colon
HCT-15 colon = tested on: HCT-15 colon
HL-60(TB) leukemia = tested on: HL-60(TB) leukemia
HOP-62 NSCLC = tested on: HOP-62 NSCLC
HOP-92 NSCLC = tested on: HOP-92 NSCLC
HS 578T breast = tested on: HS 578T breast
HT29 colon = tested on: HT29 colon
IGROV1 ovarian = tested on: IGROV1 ovarian
K-562 leukemia = tested on: K-562 leukemia
KM12 colon = tested on: KM12 colon
LOX IMVI melanoma = tested on: LOX IMVI melanoma
M14 melanoma = tested on: M14 melanoma
MALME-3M melanoma = tested on: MALME-3M melanoma
MCF7 breast = tested on: MCF7 breast
MDA-MB-231 breast = tested on: MDA-MB-231 breast
MDA-MB-435 = tested on: MDA-MB-435
MDA-N = tested on: MDA-N
MOLT-4 leukemia = tested on: MOLT-4 leukemia
NCI-H226 lung = tested on: NCI-H226 lung
NCI-H460 lung = tested on: NCI-H460 lung
NCI-H522 lung = tested on: NCI-H522 lung
NCI/ADR-RES ovarian = tested on: NCI/ADR-RES ovarian
OVCAR-4 ovarian = tested on: OVCAR-4 ovarian
OVCAR-5 ovarian = tested on: OVCAR-5 ovarian
OVCAR-8 ovarian = tested on: OVCAR-8 ovarian
PC-3 prostate = tested on: PC-3 prostate
RPMI-8226 leukemia = tested on: RPMI-8226 leukemia
RXF 393 renal = tested on: RXF 393 renal
SF-268 CNS = tested on: SF-268 CNS
SF-295 CNS = tested on: SF-295 CNS
SF-539 CNS = tested on: SF-539 CNS
SK-MEL-2 melanoma = tested on: SK-MEL-2 melanoma
SK-MEL-28 melanoma = tested on: SK-MEL-28 melanoma
SK-MEL-5 melanoma = tested on: SK-MEL-5 melanoma
SK-OV-3 ovarian = tested on: SK-OV-3 ovarian
SN12C renal = tested on: SN12C renal
SNB-19 CNS = tested on: SNB-19 CNS
SNB-75 CNS = tested on: SNB-75 CNS
SR leukemia = tested on: SR leukemia
SW-620 colon = tested on: SW-620 colon
T-47D breast = tested on: T-47D breast
TK-10 renal = tested on: TK-10 renal
U251 CNS = tested on: U251 CNS
UACC-257 melanoma = tested on: UACC-257 melanoma
UACC-62 melanoma = tested on: UACC-62 melanoma
UO-31 renal = tested on: UO-31 renal
A498 renal = tested on: A498 renal
NCI-H23 lung = tested on: NCI-H23 lung
OVCAR-3 ovarian = tested on: OVCAR-3 ovarian

N#C/C(=C\c1ccc(Br)cc1)c1nc(-c2cc3ccccc3oc2=O)cs1
TGI (786-0 renal): > 50 µM
TGI (A549 NSCLC): > 50 µM
TGI (ACHN renal): 26.1 µM
TGI (BT-549 breast): 14.5 µM
TGI (CAKI-1 renal): > 50 µM
TGI (CCRF-CEM leukemia): > 50 µM
TGI (COLO 205 colon): > 50 µM
TGI (DU-145 prostate): > 50 µM
TGI (EKVX NSCLC): > 50 µM
TGI (HCC-2998 colon): > 50 µM
TGI (HCT-116 colon): > 50 µM
TGI (HCT-15 colon): > 50 µM
TGI (HL-60(TB) leukemia): > 50 µM
TGI (HOP-62 NSCLC): 20.1 µM
TGI (HOP-92 NSCLC): 36.6 µM
TGI (HS 578T breast): 41.1 µM
TGI (HT29 colon): > 50 µM
TGI (IGROV1 ovarian): > 50 µM
TGI (K-562 leukemia): > 50 µM
TGI (KM12 colon): > 50 µM
TGI (LOX IMVI melanoma): > 50 µM
TGI (M14 melanoma): > 50 µM
TGI (MALME-3M melanoma): 27.6 µM
TGI (MCF7 breast): > 50 µM
TGI (MDA-MB-231 breast): 20.6 µM
TGI (MDA-MB-435): > 50 µM
TGI (MDA-N): > 50 µM
TGI (MOLT-4 leukemia): > 50 µM
TGI (NCI-H226 lung): > 50 µM
TGI (NCI-H460 lung): > 50 µM
TGI (NCI-H522 lung): 16.1 µM
TGI (NCI/ADR-RES ovarian): 34.4 µM
TGI (OVCAR-4 ovarian): > 50 µM
TGI (OVCAR-5 ovarian): > 50 µM
TGI (OVCAR-8 ovarian): > 50 µM
TGI (PC-3 prostate): > 50 µM
TGI (RPMI-8226 leukemia): > 50 µM
TGI (RXF 393 renal): > 50 µM
TGI (SF-268 CNS): > 50 µM
TGI (SF-295 CNS): > 50 µM
TGI (SF-539 CNS): 40.4 µM
TGI (SK-MEL-2 melanoma): > 50 µM
TGI (SK-MEL-28 melanoma): > 50 µM
TGI (SK-MEL-5 melanoma): > 50 µM
TGI (SK-OV-3 ovarian): > 50 µM
TGI (SN12C renal): > 50 µM
TGI (SNB-19 CNS): 24.1 µM
TGI (SNB-75 CNS): 30.6 µM
TGI (SR leukemia): > 50 µM
TGI (SW-620 colon): > 50 µM
TGI (T-47D breast): > 50 µM
TGI (TK-10 renal): 22.9 µM
TGI (U251 CNS): 20.1 µM
TGI (UACC-257 melanoma): 33.2 µM
TGI (UACC-62 melanoma): 23.7 µM
TGI (UO-31 renal): > 50 µM

COc1cc(/C=C2\CC3C4CC[C@H]5C[C@@H](O)CC[C@]5(C)C4CC[C@]3(C)C2=O)cc(OC)c1OC (stereo partly drawn)
TGI (786-0 renal): > 100 µM
TGI (A498 renal): 75.5 µM
TGI (A549 NSCLC): > 100 µM
TGI (ACHN renal): 45.8 µM
TGI (BT-549 breast): > 100 µM
TGI (CAKI-1 renal): 44.9 µM
TGI (CCRF-CEM leukemia): > 100 µM
TGI (COLO 205 colon): 26.1 µM
TGI (DU-145 prostate): > 100 µM
TGI (EKVX NSCLC): > 100 µM
TGI (HCC-2998 colon): 34.9 µM
TGI (HCT-116 colon): 43.6 µM
TGI (HCT-15 colon): > 100 µM
TGI (HL-60(TB) leukemia): 43.2 µM
TGI (HOP-62 NSCLC): 49.2 µM
TGI (HOP-92 NSCLC): > 100 µM
TGI (HS 578T breast): > 100 µM
TGI (HT29 colon): > 100 µM
TGI (IGROV1 ovarian): > 100 µM
TGI (K-562 leukemia): > 100 µM
TGI (KM12 colon): 73.7 µM
TGI (LOX IMVI melanoma): 32.6 µM
TGI (M14 melanoma): 61 µM
TGI (MALME-3M melanoma): 49.1 µM
TGI (MCF7 breast): 28.6 µM
TGI (MDA-MB-231 breast): > 100 µM
TGI (MDA-MB-435): 85.8 µM
TGI (MDA-N): > 100 µM
TGI (MOLT-4 leukemia): 69.5 µM
TGI (NCI-H226 lung): 86.1 µM
TGI (NCI-H23 lung): > 100 µM
TGI (NCI-H460 lung): 38.9 µM
TGI (NCI-H522 lung): 43.3 µM
TGI (NCI/ADR-RES ovarian): > 100 µM
TGI (OVCAR-4 ovarian): 57.2 µM
TGI (OVCAR-5 ovarian): > 100 µM
TGI (OVCAR-8 ovarian): > 100 µM
TGI (PC-3 prostate): > 100 µM
TGI (RPMI-8226 leukemia): 27.8 µM
TGI (RXF 393 renal): > 100 µM
TGI (SF-268 CNS): > 100 µM
TGI (SF-295 CNS): 21.5 µM
TGI (SF-539 CNS): 98.2 µM
TGI (SK-MEL-2 melanoma): 33.7 µM
TGI (SK-MEL-28 melanoma): > 100 µM
TGI (SK-MEL-5 melanoma): 22 µM
TGI (SK-OV-3 ovarian): 52.9 µM
TGI (SN12C renal): 95.3 µM
TGI (SNB-19 CNS): > 100 µM
TGI (SNB-75 CNS): 79.7 µM
TGI (SW-620 colon): > 100 µM
TGI (T-47D breast): 34.8 µM
TGI (TK-10 renal): > 100 µM
TGI (U251 CNS): 41.5 µM
TGI (UACC-257 melanoma): > 100 µM
TGI (UACC-62 melanoma): 44.9 µM
TGI (UO-31 renal): 31.7 µM

CN(C)CCCNc1ccc2nnn3c4ccc(OC(=O)c5ccc([N+](=O)[O-])cc5)cc4c(=O)c1c23
TGI (786-0 renal): 16.6 µM
TGI (A498 renal): 49.1 µM
TGI (A549 NSCLC): 20.6 µM
TGI (ACHN renal): 14.1 µM
TGI (BT-549 breast): 35.8 µM
TGI (CAKI-1 renal): 7.59 µM
TGI (CCRF-CEM leukemia): 5.39 µM
TGI (COLO 205 colon): 18.2 µM
TGI (DU-145 prostate): 18.3 µM
TGI (EKVX NSCLC): 25.1 µM
TGI (HCC-2998 colon): 25.5 µM
TGI (HCT-116 colon): 32.7 µM
TGI (HCT-15 colon): 24.1 µM
TGI (HOP-62 NSCLC): > 33.1 µM
TGI (HOP-92 NSCLC): > 57.6 µM
TGI (HS 578T breast): 34.8 µM
TGI (HT29 colon): 20.6 µM
TGI (IGROV1 ovarian): > 100 µM
TGI (K-562 leukemia): 18.9 µM
TGI (KM12 colon): 21.3 µM
TGI (LOX IMVI melanoma): > 100 µM
TGI (M14 melanoma): 27 µM
TGI (MALME-3M melanoma): 27.2 µM
TGI (MCF7 breast): > 38.9 µM
TGI (MDA-MB-231 breast): 23.3 µM
TGI (MDA-MB-435): 20.2 µM
TGI (MDA-N): 26 µM
TGI (MOLT-4 leukemia): 33.2 µM
TGI (NCI-H23 lung): 24.5 µM
TGI (NCI-H460 lung): 17.9 µM
TGI (NCI-H522 lung): 24 µM
TGI (NCI/ADR-RES ovarian): 37.5 µM
TGI (OVCAR-3 ovarian): 24.1 µM
TGI (OVCAR-4 ovarian): 10.9 µM
TGI (OVCAR-5 ovarian): 28 µM
TGI (OVCAR-8 ovarian): 20.8 µM
TGI (PC-3 prostate): 17.5 µM
TGI (RPMI-8226 leukemia): 18.6 µM
TGI (RXF 393 renal): 9.08 µM
TGI (SF-268 CNS): 21.9 µM
TGI (SF-295 CNS): 20.5 µM
TGI (SF-539 CNS): 19.3 µM
TGI (SK-MEL-2 melanoma): > 52.1 µM
TGI (SK-MEL-28 melanoma): 26.6 µM
TGI (SK-OV-3 ovarian): 26.7 µM
TGI (SN12C renal): 19.6 µM
TGI (SNB-19 CNS): 22.8 µM
TGI (SR leukemia): 11.5 µM
TGI (SW-620 colon): 17 µM
TGI (T-47D breast): 88.5 µM
TGI (TK-10 renal): 24.9 µM
TGI (U251 CNS): 33.9 µM
TGI (UACC-257 melanoma): 31 µM
TGI (UACC-62 melanoma): 37 µM
TGI (UO-31 renal): 21 µM
